Results: patent US20240208937A1, “Compounds and Their Use for Treatment of Hemoglobinopathies” (Bristol-Myers Squibb Company, priority 2022, published 2024)

What was measured:
Format in all cases: cell-based
[1] = target: WIZ (Widely interspaced zinc finger) (Homo sapiens (Human), UniProt O95785+Q96SW2); experiment: HUDEP-2 WIZ HiBiT degradation assay; conditions: HUDEP-2 WIZ HiBiT cells, 24 hours treatment, luminescence; for DC50: read-out: WIZ EC50
Procedure, shortened: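 HiBiT-tagged WIZ HUDEP-2 cells were seeded at 1.0×10^6 cells/ml in supplemented StemSpan SFEM II with doxycycline and treated 24 h at 37 °C. Remaining tagged protein was read by Nano-Glo HiBiT lytic luminescence. EC50 and Y-min were fitted after DMSO normalization across 10 concentrations, 10 to 0.0005 μM.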

[2] = target: ZBTB7A (Zinc Finger And BTB Domain Containing 7A) (Homo sapiens (Human), UniProt O95365+Q96SW2); experiment: HUDEP-2 ZBTB7A HiBiT degradation assay; conditions: HUDEP-2 ZBTB7A HiBiT cells, 24 hours treatment, luminescence; for DC50: read-out: ZBTB7A EC50
Chain of ZBTB7A (Zinc Finger And BTB Domain Containing 7A) (O95365 whole entry, the tested form may be a part): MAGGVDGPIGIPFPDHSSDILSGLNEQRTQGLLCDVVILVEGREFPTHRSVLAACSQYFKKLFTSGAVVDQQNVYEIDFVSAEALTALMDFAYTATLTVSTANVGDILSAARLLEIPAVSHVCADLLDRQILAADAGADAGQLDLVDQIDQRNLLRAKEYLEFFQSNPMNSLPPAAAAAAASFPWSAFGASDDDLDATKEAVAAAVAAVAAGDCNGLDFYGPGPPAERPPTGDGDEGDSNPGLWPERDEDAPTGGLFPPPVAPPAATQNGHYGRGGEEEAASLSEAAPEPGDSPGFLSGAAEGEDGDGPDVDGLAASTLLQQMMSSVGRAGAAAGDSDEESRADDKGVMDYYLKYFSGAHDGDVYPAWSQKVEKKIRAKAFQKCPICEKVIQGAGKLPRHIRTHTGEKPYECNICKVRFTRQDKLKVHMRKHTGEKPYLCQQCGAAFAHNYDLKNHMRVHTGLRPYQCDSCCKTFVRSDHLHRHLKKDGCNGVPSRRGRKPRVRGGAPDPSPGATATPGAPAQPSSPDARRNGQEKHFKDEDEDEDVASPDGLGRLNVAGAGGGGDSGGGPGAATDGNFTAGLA
Chain of ZBTB7A (Zinc Finger And BTB Domain Containing 7A) (Q96SW2 whole entry, the tested form may be a part): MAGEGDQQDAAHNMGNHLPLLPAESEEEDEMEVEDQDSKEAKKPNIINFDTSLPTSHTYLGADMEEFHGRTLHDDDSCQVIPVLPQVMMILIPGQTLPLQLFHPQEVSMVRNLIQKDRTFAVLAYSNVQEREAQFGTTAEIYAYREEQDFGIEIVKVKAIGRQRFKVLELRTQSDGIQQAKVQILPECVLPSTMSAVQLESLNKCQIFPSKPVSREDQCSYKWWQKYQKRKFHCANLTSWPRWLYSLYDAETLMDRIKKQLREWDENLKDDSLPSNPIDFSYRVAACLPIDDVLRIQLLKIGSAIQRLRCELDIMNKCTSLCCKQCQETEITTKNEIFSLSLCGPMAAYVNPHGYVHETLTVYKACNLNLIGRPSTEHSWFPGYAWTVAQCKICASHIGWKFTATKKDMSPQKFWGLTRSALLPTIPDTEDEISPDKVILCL
Chain of ZBTB7A (Zinc Finger And BTB Domain Containing 7A) (Q16531 whole entry partner, the tested form may be a part): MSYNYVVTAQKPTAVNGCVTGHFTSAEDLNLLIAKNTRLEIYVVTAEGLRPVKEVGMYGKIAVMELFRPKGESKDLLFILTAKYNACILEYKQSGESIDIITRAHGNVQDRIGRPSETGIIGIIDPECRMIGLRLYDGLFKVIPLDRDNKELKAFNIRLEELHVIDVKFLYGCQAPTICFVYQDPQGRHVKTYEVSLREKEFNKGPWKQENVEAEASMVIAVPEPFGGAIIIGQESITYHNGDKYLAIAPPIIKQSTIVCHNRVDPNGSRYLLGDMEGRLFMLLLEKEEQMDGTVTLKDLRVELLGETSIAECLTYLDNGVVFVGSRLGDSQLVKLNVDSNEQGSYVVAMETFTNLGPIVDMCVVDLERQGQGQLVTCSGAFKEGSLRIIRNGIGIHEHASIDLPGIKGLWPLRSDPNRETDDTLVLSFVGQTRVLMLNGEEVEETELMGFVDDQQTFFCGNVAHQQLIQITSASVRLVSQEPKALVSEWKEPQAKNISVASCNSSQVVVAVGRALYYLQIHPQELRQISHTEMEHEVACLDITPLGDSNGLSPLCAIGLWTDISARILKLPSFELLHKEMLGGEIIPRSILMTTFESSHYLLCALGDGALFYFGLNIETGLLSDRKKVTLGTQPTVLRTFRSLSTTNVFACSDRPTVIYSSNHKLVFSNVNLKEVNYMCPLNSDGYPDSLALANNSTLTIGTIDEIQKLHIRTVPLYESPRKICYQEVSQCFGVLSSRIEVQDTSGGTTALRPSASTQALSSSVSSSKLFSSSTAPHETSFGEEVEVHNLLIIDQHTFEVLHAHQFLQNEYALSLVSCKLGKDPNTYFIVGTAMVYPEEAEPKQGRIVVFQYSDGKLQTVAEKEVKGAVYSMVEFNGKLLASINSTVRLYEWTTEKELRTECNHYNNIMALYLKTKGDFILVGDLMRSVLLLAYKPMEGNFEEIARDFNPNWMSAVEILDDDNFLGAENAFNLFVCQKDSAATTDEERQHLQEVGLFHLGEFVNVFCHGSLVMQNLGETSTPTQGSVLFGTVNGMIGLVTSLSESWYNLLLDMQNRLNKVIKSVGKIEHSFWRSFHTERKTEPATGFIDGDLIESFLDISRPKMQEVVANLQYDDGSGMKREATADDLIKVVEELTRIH
Procedure, shortened: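 HUDEP-2 cells carrying HiBiT-tagged ZBTB7A, grown 48 h in IMDM with EPO, SCF, insulin, transferrin, heparin, dox and 5% human plasma, then seeded at 1.0×10^6 cells/ml on pre-dispensed compound (10 concentrations, 10–0.0005 μM) for 24 h at 37 °C. Lytic HiBiT luminescence, DMSO-normalised, gave EC50 and Y-min.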

[3] = tested on: fetal hemoglobin (HbF) in GCSF-mobilized human CD34+ cells; experiment: HbF Induction Assay; conditions: 168 h; compound 1 μM, 7 days, erythroid-differentiated human CD34+ cells, flow cytometry; DMSO baseline 15% HbF positive cells
Procedure, shortened: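 GCSF-mobilized human CD34+ cells were expanded for 7 days with SCF, Flt3-L, IL-3 and EPO, then differentiated with SCF and EPO while dosed at 1 μM (0.1% DMSO), with compound refreshed every 2 days for 7 days. Viability and % HbF-positive cells and MFI were measured by flow cytometry with anti-HbF staining, relative to DMSO controls.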

Chain of WIZ (Widely interspaced zinc finger) (O95785 whole entry): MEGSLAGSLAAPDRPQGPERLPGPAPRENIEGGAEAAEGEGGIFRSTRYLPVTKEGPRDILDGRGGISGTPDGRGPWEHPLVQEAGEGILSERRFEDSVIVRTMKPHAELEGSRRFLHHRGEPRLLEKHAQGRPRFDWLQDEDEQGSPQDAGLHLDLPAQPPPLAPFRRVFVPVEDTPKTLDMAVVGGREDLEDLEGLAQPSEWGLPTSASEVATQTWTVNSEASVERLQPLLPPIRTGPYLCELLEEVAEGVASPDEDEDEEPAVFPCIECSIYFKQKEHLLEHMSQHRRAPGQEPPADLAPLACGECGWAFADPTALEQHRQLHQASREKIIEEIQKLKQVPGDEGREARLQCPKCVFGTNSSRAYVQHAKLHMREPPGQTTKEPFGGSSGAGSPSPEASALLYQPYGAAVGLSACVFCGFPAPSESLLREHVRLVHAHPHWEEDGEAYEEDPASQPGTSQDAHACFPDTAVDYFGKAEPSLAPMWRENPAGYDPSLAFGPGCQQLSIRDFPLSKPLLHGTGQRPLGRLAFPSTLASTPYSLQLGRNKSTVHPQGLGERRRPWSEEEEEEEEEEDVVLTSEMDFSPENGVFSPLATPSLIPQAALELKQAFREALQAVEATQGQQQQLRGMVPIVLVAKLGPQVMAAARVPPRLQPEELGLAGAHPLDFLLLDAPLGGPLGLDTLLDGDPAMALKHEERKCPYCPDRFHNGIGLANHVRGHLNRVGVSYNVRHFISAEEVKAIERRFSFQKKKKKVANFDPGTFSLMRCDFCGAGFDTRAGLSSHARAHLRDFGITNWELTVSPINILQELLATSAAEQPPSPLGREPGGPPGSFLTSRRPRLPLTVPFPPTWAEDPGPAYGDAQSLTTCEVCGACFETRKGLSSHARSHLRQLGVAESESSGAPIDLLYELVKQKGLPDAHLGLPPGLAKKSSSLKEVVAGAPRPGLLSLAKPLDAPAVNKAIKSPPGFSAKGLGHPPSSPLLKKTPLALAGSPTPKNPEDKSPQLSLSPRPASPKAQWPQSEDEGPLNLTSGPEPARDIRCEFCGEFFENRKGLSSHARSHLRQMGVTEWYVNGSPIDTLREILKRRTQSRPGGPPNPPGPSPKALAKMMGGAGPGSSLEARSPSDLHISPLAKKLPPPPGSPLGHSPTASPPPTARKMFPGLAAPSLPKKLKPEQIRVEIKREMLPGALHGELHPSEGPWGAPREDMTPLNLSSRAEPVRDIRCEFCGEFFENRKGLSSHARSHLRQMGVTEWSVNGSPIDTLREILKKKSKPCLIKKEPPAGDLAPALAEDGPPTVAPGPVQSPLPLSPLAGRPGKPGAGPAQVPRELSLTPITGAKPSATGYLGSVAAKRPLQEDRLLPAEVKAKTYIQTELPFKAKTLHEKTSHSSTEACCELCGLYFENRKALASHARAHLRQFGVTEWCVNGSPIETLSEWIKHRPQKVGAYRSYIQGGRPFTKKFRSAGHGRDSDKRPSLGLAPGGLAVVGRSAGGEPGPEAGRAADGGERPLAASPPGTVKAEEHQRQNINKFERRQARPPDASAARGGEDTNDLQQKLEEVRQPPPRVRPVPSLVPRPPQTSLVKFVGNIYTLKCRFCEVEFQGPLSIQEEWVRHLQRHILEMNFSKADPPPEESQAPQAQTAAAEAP
Chain of WIZ (Widely interspaced zinc finger) (Q96SW2 whole entry): as the sequence (Q96SW2 whole entry, the tested form may be a part) above
Chain of WIZ (Widely interspaced zinc finger) (Q16531 whole entry partner): as the sequence (Q16531 whole entry partner, the tested form may be a part) above

| Structure (SMILES) | DC50 [1] | EC50 [2] | activation at 1 µM [3] | DC50 [2] | EC50 [1] |
| --- | --- | --- | --- | --- | --- |
| Cc1ncncc1Oc1ccc2c(cnn2C)c1Nc1cccc2c1C(=O)N(C1CCC(=O)NC1=O)C2=O (stereo not drawn) [Compound 26, 2-(2,6-dioxopiperidin-3-yl)-4-((1-methyl-5-((4-methylpyrimidin-5-yl)oxy)-1H-indazol-4-yl)amino)isoindoline-1,3-dione] | 0.01 to 0.1 µM | > 0.1 µM | < 33% |  |  |
| Cn1ncc2cc(Oc3ccccc3)c(Nc3cccc4c3C(=O)N(C3CCC(=O)NC3=O)C4=O)cc21 (stereo not drawn) [Compound 27, 2-(2,6-dioxopiperidin-3-yl)-4-((1-methyl-5-phenoxy-1H-indazol-6-yl)amino)isoindoline-1,3-dione] | 0.01 to 0.1 µM | > 0.1 µM | < 33% |  |  |
| Cn1ncc2cc(Nc3cccc4c3C(=O)N(C3CCC(=O)NC3=O)C4=O)c(-c3cccc(C(F)(F)F)c3)cc21 (stereo not drawn) [Compound 28, 2-(2,6-dioxopiperidin-3-yl)-4-((1-methyl-6-(3-(trifluoromethyl)phenyl)-1H-indazol-5-yl)amino)isoindoline-1,3-dione] | > 0.1 µM | > 0.1 µM | < 33% |  |  |
| Cc1nccc(-c2cc3c(cnn3C)cc2Nc2cccc3c2C(=O)N(C2CCC(=O)NC2=O)C3=O)c1C (stereo not drawn) [Compound 29, 4-((6-(2,3-dimethylpyridin-4-yl)-1-methyl-1H-indazol-5-yl)amino)-2-(2,6-dioxopiperidin-3-yl)isoindoline-1,3-dione] | 0.01 to 0.1 µM | > 0.1 µM | < 33% |  |  |
| COc1cc(-c2ccccc2)c(Nc2cccc3c2C(=O)N(C2CCC(=O)NC2=O)C3=O)cn1 (stereo not drawn) [Compound 30, 2-(2,6-dioxopiperidin-3-yl)-4-((6-methoxy-4-phenylpyridin-3-yl)amino)isoindoline-1,3-dione] | 0.01 to 0.1 µM |  | < 33% | 0.03 to 0.1 µM |  |
| CN(C)C1CCc2ccc(Nc3cccc4c3C(=O)N([C@@]3(C)CCC(=O)NC3=O)C4=O)cc21 (stereo partly drawn) [Compound 31, 4-((3-(dimethylamino)-2,3-dihydro-1H-inden-5-yl)amino)-2-((S)-3-methyl-2,6-dioxopiperidin-3-yl)isoindoline-1,3-dione] | 0.01 to 0.1 µM | > 0.1 µM | 33 to 66% |  |  |
| Cc1cc(-c2cc3c(cc2Nc2cccc4c2C(=O)N([C@H]2CCC(=O)NC2=O)C4=O)N(C)C(=O)CC3)ccn1 [Compound 32, (S)-2-(2,6-dioxopiperidin-3-yl)-4-((1-methyl-6-(2-methylpyridin-4-yl)-2-oxo-1,2,3,4-tetrahydroquinolin-7-yl)amino)isoindoline-1,3-dione] |  |  | 66 to 100% | 0.03 to 0.1 µM | < 0.01 µM |
| Cc1csc(-c2cc3c(cc2Nc2cccc4c2C(=O)N(C2CCC(=O)NC2=O)C4=O)N(C)C(=O)CC3)n1 (stereo not drawn) [Compound 39, 2-(2,6-dioxopiperidin-3-yl)-4-((1-methyl-6-(4-methylthiazol-2-yl)-2-oxo-1,2,3,4-tetrahydroquinolin-7-yl)amino)isoindoline-1,3-dione] | 0.01 to 0.1 µM |  | 33 to 66% | 0.03 to 0.1 µM |  |
| Cc1cc(-c2cc3c(cc2Nc2cccc4c2C(=O)N([C@H]2CCC(=O)NC2=O)C4=O)n(C)c(=O)n3C)cc(C)n1 [Compound 40, (S)-4-((6-(2,6-dimethylpyridin-4-yl)-1,3-dimethyl-2-oxo-2,3-dihydro-1H-benzo[d]imidazol-5-yl)amino)-2-(2,6-dioxopiperidin-3-yl)isoindoline-1,3-dione] |  | < 0.03 µM | 66 to 100% |  | < 0.01 µM |
| Cc1cc(-c2cc3c(cc2Nc2cccc4c2C(=O)N([C@H]2CCC(=O)NC2=O)C4=O)n(C)c(=O)n3C)ccn1 [Compound 41, (S)-4-((1,3-dimethyl-6-(2-methylpyridin-4-yl)-2-oxo-2,3-dihydro-1H-benzo[d]imidazol-5-yl)amino)-2-(2,6-dioxopiperidin-3-yl)isoindoline-1,3-dione] |  | < 0.03 µM | 66 to 100% |  | < 0.01 µM |
| Cc1cc(-c2cc3c(cnn3C)cc2Nc2cccc3c2C(=O)N([C@H]2CCC(=O)NC2=O)C3=O)ccn1 [Compound 42, (S)-2-(2,6-dioxopiperidin-3-yl)-4-((1-methyl-6-(2-methylpyridin-4-yl)-1H-indazol-5-yl)amino)isoindoline-1,3-dione] | > 0.1 µM |  | 33 to 66% | 0.03 to 0.1 µM |  |
| Cc1cc(-c2cc3c(cc2Nc2cccc4c2C(=O)N(C2CCC(=O)NC2=O)C4=O)N(C)C(=O)CC3)ccn1 (stereo not drawn) [Compound 43, 2-(2,6-dioxopiperidin-3-yl)-4-((1-methyl-6-(2-methylpyridin-4-yl)-2-oxo-1,2,3,4-tetrahydroquinolin-7-yl)amino)isoindoline-1,3-dione] |  | < 0.03 µM | 66 to 100% |  | < 0.01 µM |
| Cc1cc(-c2cc3c(cnn3[C@@H]3CCOC3)cc2Nc2cccc3c2C(=O)N([C@H]2CCC(=O)NC2=O)C3=O)ccn1 [Compound 44, 2-((S)-2,6-dioxopiperidin-3-yl)-4-((6-(2-methylpyridin-4-yl)-1-((R)-tetrahydrofuran-3-yl)-1H-indazol-5-yl)amino)isoindoline-1,3-dione] | 0.01 to 0.1 µM |  | 66 to 100% | 0.03 to 0.1 µM |  |
| Cc1nccc(-c2cc3c(cc2Nc2cccc4c2C(=O)N(C2CCC(=O)NC2=O)C4=O)N(C)C(=O)CC3)c1F (stereo not drawn) [Compound 45, 2-(2,6-dioxopiperidin-3-yl)-4-((6-(3-fluoro-2-methylpyridin-4-yl)-1-methyl-2-oxo-1,2,3,4-tetrahydroquinolin-7-yl)amino)isoindoline-1,3-dione] |  | < 0.03 µM | 66 to 100% |  | < 0.01 µM |
| Cc1cc(-c2cc3c(cc2Nc2cccc4c2C(=O)N(C2CCC(=O)NC2=O)C4=O)N(C)C(=O)CC3)c(F)cn1 (stereo not drawn) [Compound 46, 2-(2,6-dioxopiperidin-3-yl)-4-((6-(5-fluoro-2-methylpyridin-4-yl)-1-methyl-2-oxo-1,2,3,4-tetrahydroquinolin-7-yl)amino)isoindoline-1,3-dione] |  | < 0.03 µM | 66 to 100% |  | < 0.01 µM |
| Cc1nccc(-c2cc3c(cc2Nc2cccc4c2C(=O)N(C2CCC(=O)NC2=O)C4=O)N(C)C(=O)CC3)c1Cl (stereo not drawn) [Compound 47, 4-((6-(3-chloro-2-methylpyridin-4-yl)-1-methyl-2-oxo-1,2,3,4-tetrahydroquinolin-7-yl)amino)-2-(2,6-dioxopiperidin-3-yl)isoindoline-1,3-dione] |  | < 0.03 µM | 66 to 100% |  | < 0.01 µM |
| Cc1cc(-c2cc3c(cc2Nc2cccc4c2C(=O)N(C2CCC(=O)NC2=O)C4=O)N(C)C(=O)CC3)cc(C)n1 (stereo not drawn) [Compound 48, 4-((6-(2,6-dimethylpyridin-4-yl)-1-methyl-2-oxo-1,2,3,4-tetrahydroquinolin-7-yl)amino)-2-(2,6-dioxopiperidin-3-yl)isoindoline-1,3-dione] |  | < 0.03 µM | 66 to 100% |  | < 0.01 µM |
| Cc1cc(-c2cc3c(cnn3[C@@H]3CCOC3)cc2Nc2cccc3c2C(=O)N([C@@H]2CCC(=O)NC2=O)C3=O)ccn1 [Compound 52, 2-((R)-2,6-dioxopiperidin-3-yl)-4-((6-(2-methylpyridin-4-yl)-1-((R)-tetrahydrofuran-3-yl)-1H-indazol-5-yl)amino)isoindoline-1,3-dione] |  | > 0.1 µM | 66 to 100% |  | < 0.01 µM |
